Assays:
[1] = test system: host plants; assay: Toxicity of infiltrated antioxidant to the host plant (necrosis); conditions: for toxicity to the plant: 100 μM
Protocol: Transient infiltration was done according Medrano et al (2009), with some modifications as follows. Briefly, an A. tumefaciens inoculum integrated with the binary vector pBIB-Kan encoding IL-12 was cultured under standard conditions for 2 days at 28° C. The bacterial cultures were centrifuged and resuspended to a final OD600 of 0.2-0.8, in 400 mL of a induction medium (“IM”; 0.5× Murashige and Skoog basal medium salts, 1× MS vitamins, 5% sucrose, 1× benzylaminopurine, 200 μM acetosyringone, pH 5.5). The cultures were incubated in 1M for ≥3 h at 28° C. Vacuum infiltration of 4-5-week-old N. benthamiana was accomplished by inverting a plant into a 400 mL glass beaker containing IM, ensuring that all leaves of the plant are immersed in the media. The beaker was placed in a vacuum desiccator unit (240-mm inner diameter) and using a vacuum pump, maximum pressure (˜25 in. Hg) was applied for 2 min and then quickly released. Additional plants were subject to infiltration using the same construct/antioxidant culture, or replaced with a new beaker of IM containing another construct/antioxidant culture. […] Infiltrated plants were returned to the environmental chamber at conditions established previously during plant growth. In the case of both model transgene constructs, leaves were harvested from plants at 48 h post-infiltration and stored at −80° C. for subsequent analyses.
(§1) Vitamin E and vitamin K were solubilized in chloroform and kept on amber tube on ice. The final concentration range of vitamins E and K tested were 5-100 μM.

[2] = test system: N. benthamiana plants; assay: Transient chIL-12 expression after vacuum co-infiltration, anti-his Western blot and densitometry; format: in vivo
Protocol: Transient infiltration was done according Medrano et al (2009), with some modifications as follows. Briefly, an A. tumefaciens inoculum integrated with the binary vector pBIB-Kan encoding IL-12 was cultured under standard conditions for 2 days at 28° C. The bacterial cultures were centrifuged and resuspended to a final OD600 of 0.2-0.8, in 400 mL of a induction medium (“IM”; 0.5× Murashige and Skoog basal medium salts, 1× MS vitamins, 5% sucrose, 1× benzylaminopurine, 200 μM acetosyringone, pH 5.5). The cultures were incubated in 1M for ≥3 h at 28° C. Vacuum infiltration of 4-5-week-old N. benthamiana was accomplished by inverting a plant into a 400 mL glass beaker containing IM, ensuring that all leaves of the plant are immersed in the media. The beaker was placed in a vacuum desiccator unit (240-mm inner diameter) and using a vacuum pump, maximum pressure (˜25 in. Hg) was applied for 2 min and then quickly released. Additional plants were subject to infiltration using the same construct/antioxidant culture, or replaced with a new beaker of IM containing another construct/antioxidant culture. A single IM culture was used for infiltrating typically 3 but up to 10 independent plants with no adverse effect on the amount of transgene product expressed and presence of exogenously introduced antioxidant in planta respectively. Infiltrated plants were returned to the environmental chamber at conditions established previously during plant growth. In the case of both model transgene constructs, leaves were harvested from plants at 48 h post-infiltration and stored at −80° C. for subsequent analyses.
Vitamin E and vitamin K were solubilized in chloroform and kept on amber tube on ice. […]
(§2) Samples were resolved by SDS-PAGE (run under denaturing or reducing conditions) and Western immunoblotting analysis performed. […] Densitometry using the BIORAD® VERSDOC4000™ and QUANT-1® software package was employed and relative protein expression was determined in order to evaluate the effect of antioxidants on plant-made protein expression.

[3] = test system: N. benthamiana plants; assay: Transient hIL-12 expression after vacuum co-infiltration, Western blot and densitometry; format: in vivo; conditions: for increase in hIL-12 expression (semi-quantitative densitometry): 20 mM AsA in induction medium, vs construct alone
Protocol: Transient infiltration was done according Medrano et al (2009), with some modifications as follows. Briefly, an A. tumefaciens inoculum integrated with the binary vector pBIB-Kan encoding IL-12 was cultured under standard conditions for 2 days at 28° C. The bacterial cultures were centrifuged and resuspended to a final OD600 of 0.2-0.8, in 400 mL of a induction medium (“IM”; 0.5× Murashige and Skoog basal medium salts, 1× MS vitamins, 5% sucrose, 1× benzylaminopurine, 200 μM acetosyringone, pH 5.5). The cultures were incubated in 1M for ≥3 h at 28° C. Vacuum infiltration of 4-5-week-old N. benthamiana was accomplished by inverting a plant into a 400 mL glass beaker containing IM, ensuring that all leaves of the plant are immersed in the media. The beaker was placed in a vacuum desiccator unit (240-mm inner diameter) and using a vacuum pump, maximum pressure (˜25 in. Hg) was applied for 2 min and then quickly released. Additional plants were subject to infiltration using the same construct/antioxidant culture, or replaced with a new beaker of IM containing another construct/antioxidant culture. A single IM culture was used for infiltrating typically 3 but up to 10 independent plants with no adverse effect on the amount of transgene product expressed and presence of exogenously introduced antioxidant in planta respectively. Infiltrated plants were returned to the environmental chamber at conditions established previously during plant growth. […]
as §1
(§3) Samples were resolved by SDS-PAGE (run under denaturing or reducing conditions) and Western immunoblotting analysis performed. For hIL-12 detection, primary antibody anti-human IL-12 (1:1000 v/v; R&D Systems) and secondary antibody anti-goat IgG-alkaline phosphatase conjugated (1:10,000 v/v; BIORAD®) was used. For chIL-12 detection, anti-6×His (C-term)-alkaline phosphatase conjugated (1:2000 v/v; Invitrogen) was used. Detection on immunoblots was carried out using the CDP-Star chemiluminescent substrate for alkaline phosphatase (Roche, Indianapolis, Ind.) and NitroBlock. Enhancer II (Tropix Inc., Bedford, Mass.) in accordance with manufacturers' procedures. Densitometry using the BIORAD® VERSDOC4000™ and QUANT-1® software package was employed and relative protein expression was determined in order to evaluate the effect of antioxidants on plant-made protein expression.

[4] = test system: H2O2 in leaves; assay: In situ H2O2 detection in leaves, DAB staining; format: in vivo, N. benthamiana
From the text: Staining for H2O2 in leaves which correlates with the presence of reactive oxygen species (ROS) is detected by an endogenous peroxidase-dependent staining procedure, using 3,3-diaminobenzidine (DAB). This assay provides a comparative in situ measure of the ROS levels in planta (Thordal-Christensen et al., 1997).

[5] = test system: Stable N. tabacum lines; assay: hIL-12 expression in stable transgenic lines after vacuum infiltration, Western blot; format: in vivo; conditions: AsA in IM media, leaves 24 and 48 h
Protocol: as §3
This finding further supports the concept that increasing the antioxidant capacity of the host plant enhances the overall biosynthesis of the plant in serving as a factory for recombinant protein production.

[6] = test system: transient system host plants; assay: Foliar ascorbate content of infiltrated host plants, ascorbate oxidase assay; format: in vivo, N. benthamiana; conditions: increasing infiltrated AsA
Protocol: Leaf tissue ground in the presence of liquid nitrogen with mortar/pestle was extracted. The foliar vitamin C content was determined by the ascorbate oxidase assay as previously described (Lorence et al., 2004). Briefly, tissue samples were harvested and immediately frozen in liquid nitrogen and stored at -80° C. till analysis. Samples were ground in 6% (w/v) meta-phosphoric acid, and centrifuged at 15,000×g for 10 min. Reduced vitamin C (a.k.a. ascorbate) was determined by measuring the decline in […] (extinction coefficient of 14.3 cm^-1 mM^-1) after addition of 1 unit of ascorbate oxidase (Sigma) to 1 mL of the reaction mix including tissue extract and 100 mM potassium phosphate (pH 6.9). […] Foliar ascorbate content was determined by a microplate reader-based method described herein. […] Reduced ascorbate was determined in a 300 μL reaction in triplicates by adding 275 μL of 0.1M of potassium phosphate buffer pH 6.9 into a 96-well plate (UV Flat Bottom Microplate, Thermo Scientific) containing 15 μL of sample supernatant. The mix was measured at […] and recorded. The decline in […] was measured after addition of 10 μL (1 U) of ascorbate oxidase (final concentration 0.0033 units of ascorbate oxidase, Sigma). […] The mix was measured at […] and recorded. […] […] was measure using a plate reader (model Power Wave XS, software KC Junior, Biotek).

[7] = test system: plant transient bioproduction system; assay: Transient expression of a 94 kDa human glycoprotein, Western blot; format: in vivo; conditions: 20 mM co-infiltrated AsA, 72 hrs post-infiltration
Protocol: Transient infiltration was done according Medrano et al (2009), with some modifications as follows. Briefly, an A. tumefaciens inoculum integrated with the binary vector pBIB-Kan encoding IL-12 was cultured under standard conditions for 2 days at 28° C. The bacterial cultures were centrifuged and resuspended to a final OD600 of 0.2-0.8, in 400 mL of a induction medium (“IM”; 0.5× Murashige and Skoog basal medium salts, 1× MS vitamins, 5% sucrose, 1× benzylaminopurine, 200 μM acetosyringone, pH 5.5). The cultures were incubated in 1M for ≥3 h at 28° C. Vacuum infiltration of 4-5-week-old N. benthamiana was accomplished by inverting a plant into a 400 mL glass beaker containing IM, ensuring that all leaves of the plant are immersed in the media. The beaker was placed in a vacuum desiccator unit (240-mm inner diameter) and using a vacuum pump, maximum pressure (˜25 in. Hg) was applied for 2 min and then quickly released. […]
as §2

[8] = test system: N. benthamiana leaves; assay: Recovery of purified hIL-12, heterodimer-specific hIL-12 ELISA; format: in vivo; conditions: 20 mM exogenously added AsA vs no antioxidant
Protocol: The amount of hIL-12 expressed in N. benthamiana leaves in the presence or absence of modified antioxidants levels during bioproduction was quantitated using a commercially available heterodimer-specific hIL-12 enzyme-linked immunoabsorbant assay (ELISA) (R&D Systems). To assay hIL-12, leaves were ground in PBS buffer (137 mM NaCl, 2.7 mM KCl, 10.1 mM Na2HPO4, and […] KH2PO4 pH 7.0) at a 1:2 (w/v) ratio and supernatant extracts were analyzed by the ELISA. For hIL-12 detection, the ELISA used monoclonal antibodies specific for hIL-12 p70 for capture (0.2 μg/mL) and biotinylated anti-human IL-12 antibody for detection (4 μg/mL). Streptavidin-HRP (1:200 v/v) was used for chemiluminescence and 3,3′,5,5′-tetramethylbenzidine (TMB; KPL) as a substrate for detection. Densitometry using the BIORAD® VERSDOC4000™ and QUANT-1® software package was employed and was established relative protein expression in order to evaluate the impact of antioxidants on its expression in plants.

vitamin K was tested. Which “toxicity to the plant” value [1] did it give?
Its value is “detrimental”.

With vitamin E as the compound, how does the “chIL12 protein production at higher concentrations” value ([2]; 50-100 μM) read?
The value was “reduced improvement in protein production”.

And the “concentration with greatest impact in transient chIL12 protein expression” value ([2]; dose-response 5-100 mM)?
The value was 20 µM.

And the “toxicity to the plant” value [1]?
The value was “appeared to be toxic”.

What about the “transient hIL-12 expression” value ([3]; vitamin E alone) of the same compound?
The value was “no effect on expression”.

Which results are given for `O=C1O[C@H]([C@@H](O)CO)C(O)=C1O` [AsA, ascorbic acid]?
increase in chIL-12 protein expression ([2]; 20 mM AsA, 48 h post-infiltration, on average): ~3 fold; effect on leaves/cells of host plants ([1]; 80 mM): began to show signs of necrosis; effect on leaves/cells of host plants ([1]; 80 mM, listed as vitamin C): detrimental; effect on leaves/cells of host plants ([1]; 100 mM): significant necrotic lesions; effect on leaves/cells of host plants ([1]; 100 mM, listed as vitamin C): detrimental; hIL-12 protein expression levels, dose response ([3]; 0, 20, 40, 60 mM AsA): dose dependent increase; increase in hIL-12 expression (semi-quantitative densitometry) [3]: 25-30%; increase in hIL-12 expression (semi-quantitative densitometry) ([3]; listed as vitamin C): ~25%; monomeric, single-chain hIL12 on Western blot ([3]; 20 mM co-infiltrated AsA vs construct alone): significant increase; oligomer formation of hIL-12 ([3]; 48 and 72 h post-infiltration, vs 0 mM AsA): abrogates oligomer formation of hIL-12; time hIL-12 is sustained in planta ([3]; co-infiltrated AsA vs 0 mM AsA): up to 72 h; effective dose range for recombinant protein production ([3]; plant transient infiltration system): 20 to 60 mM; H2O2 staining (DAB) ([4]; 80 mM AsA): some staining; H2O2 staining (DAB) ([4]; 100 mM AsA): clearly detectable; H2O2 staining (DAB) ([4]; 20 to 60 mM AsA): minimal; hIL-12 protein levels in stable transgenic plants [5]: increasing the overall expression of hIL-12 protein levels; in planta foliar AsA levels [6]: dose-dependent increase; stable accumulation of 94 kDa human glycoprotein [7]: enhanced; more purified hIL12 product recovered (ELISA) [8]: 20-25%

Reference: patent US11773399B2, “Methods and compositions for enhancing polypeptide production” (priority 2009, dated 2023)
